In patent US9902986B2, “Enterobactin conjugates and uses thereof” (Massachusetts Institute of Technology, priority 2013, dated 2018):

Test system: various E. coli strains
Assay: Antibacterial activity against a panel of E. coli strains
Type: cell-based, Escherichia coli
Conditions: 6 strains of E. coli (K-12, B, H9049, 25922, UTI89, CFT073)
Experimental: Overnight cultures of the bacterial strains were prepared by inoculating 5 mL of LB with the bacterial freezer stocks and the cultures were incubated at 37° C. in a tabletop incubator shaker set at 150 rpm. The overnight culture grew to saturation and was diluted 1:100 into 5 mL of fresh LB medium containing DP (200 μM) and incubated at 37° C. with shaking at 150 rpm until OD600 reached 0.6. The cultures were subsequently diluted to an OD600 value of 0.001 in 50% MHB medium (11.5 g/L) with or without DP (200 μM). No antibiotic marker was included in these cultures. A 90-μL aliquot of the diluted culture was combined with a 10-μL aliquot of a 10× solution of the tested compounds in a 96-well plate, which was wrapped in […] and incubated at 30° C. with shaking at 150 rpm for 19 h. Bacterial growth was determined by measuring OD600 using a BIOTEK SYNERGY HT plate reader. Each well condition was prepared in duplicate, and at least three independent replicates were conducted on different days. The resulting mean OD600 are reported and the error bars are the standard deviation.
Ampicillin and amoxicillin are β-lactam antibiotics that have periplasmic targets in Gram-negative bacteria and inhibit cell wall biosynthesis. The antibacterial activity of Ent-ampicillin and Ent-amoxicillin conjugates 44 and 45 was evaluated in vitro against a panel of Gram-negative and positive-bacteria.
Select Ent-β-lactam conjugates (Ent-Amp and Ent-Amx) and their glucosylated derivatives (MGE-Amp, MGE-Amx, DGE-Amp, and DGE-Amx) were tested against 6 strains of E. coli. Four of them are non-pathogenic strains, namely K-12, B, H9049, and 25922, and the other two are uropathogenic clinical isolates, namely UTI89 and CFT073.

Compound | antibacterial activity against uropathogenic compared to non-pathogenic E. coli
CC1(C)SC2C(NC(=O)C(NC(=O)CCCc3cn(CCOCCOCCOCCNC(=O)c4cc(O)c(O)c(C(=O)NC5COC(=O)C(NC(=O)c6cc(C7OC(CO)C(O)C(O)C7O)cc(O)c6O)COC(=O)C(NC(=O)c6cc(C7OC(CO)C(O)C(O)C7O)cc(O)c6O)COC5=O)c4)nn3)c3ccccc3)C(=O)N2C1C(=O)O (centres unmarked) [DGE-Amp] | greater antibacterial activity against the uropathogenic E. coli compared to non-pathogenic E. coli
CC1(C)SC2C(NC(=O)C(NC(=O)CCCc3cn(CCOCCOCCOCCNC(=O)c4cc(O)c(O)c(C(=O)NC5COC(=O)C(NC(=O)c6cc(C7OC(CO)C(O)C(O)C7O)cc(O)c6O)COC(=O)C(NC(=O)c6cccc(O)c6O)COC5=O)c4)nn3)c3ccccc3)C(=O)N2C1C(=O)O (centres unmarked) [MGE-Amp] | greater antibacterial activity against the uropathogenic E. coli compared to non-pathogenic E. coli
